One assay addresses KIT (Homo sapiens, UniProt P10721). The assay can be described thus: KIT in vitro kinase activity assay (HTRF kinEASE TK). The class given is biochemical. Conditions: for inhibition at 0.01 µM: compound 10 nM, read-out: KIT inhibition rate, 10 nM; for inhibition at 0.1 µM: compound 100 nM, read-out: KIT inhibition rate, 100 nM. From the text: (§1) CSF-1R, PDGFR-α, KDR (VEGFR2) and KIT in vitro Kinase Activity Assay:
(§2) • ENVISION (Perkinelmer, 2104) • White 384-well MicroPlate (Cat #264706, Nunc) • HTRF kinEASE TK kit main reagents (Cat #62TKOPEC, Cisbio) • TK-biotin substrate • Streptavidin-XL665 • TK Antibody-Cryptate • 5× Enzymatic buffer (5×KB) • Staphylococcal enterotoxin B (SEB) • HTRF Detection buffer • CSF-1R (Cat #PV3249, Invitrogen) • PDGFR-α (Cat #PV3811, Invitrogen) • KDR (Cat #PV3660, Invitrogen) • KIT (Cat #08-156, Carna) • ATP 10 mM (Cat #PV3227, Invitrogen) • DTT 1 M (Cat #D5545, Sigma) • MgCl2 1 M (Cat #M8266, Sigma) • MnCl2 1 M (Cat #244589, Sigma)
(§3) Dilute Substrate-TK and ATP to 5× of the reaction concentration using 1× Kinase Buffer.
(§4) Prepare the 5× enzyme working solution using 1× Kinase Buffer.
(§5) Prepare the 4×Sa-XL665 working solution using Detection Buffer.
(§6) Dilute TK-Ab-Cryptate 100 times using Detection Buffer to prepare the working solution.
(§7) After all reagents were prepared according to the methods described above, except for the enzyme, they were equilibrated to room temperature before starting the sample addition. • a) First, 2.5% DMSO solutions were prepared separately using the pre-prepared 1× kinase buffer (DMSO concentrations that were too high could affect the reaction, so the final concentration of DMSO was controlled at 1%). Then, the corresponding 2.5% DMSO solution for the enzyme was used to dilute the test compounds. Compounds were screened with two concentrations of 100 nM and 10 nM. Except for the control wells, 4 μL of the diluted test compound solution was added to the reaction wells, and 4 μL of the pre-prepared 2.5% DMSO solution was added to the control wells. • b) 2 μL of the pre-prepared TK-biotin substrate solution at the corresponding concentration for the kinase was added to all reaction wells. • c) 2 μL of the pre-prepared enzyme solution at the corresponding concentration was added to all reaction wells except the negative control wells. For the negative control wells, 2 μL of 1× kinase buffer corresponding to the enzyme was added to make up the volume. The plate was sealed with sealing film, mixed gently, and incubated at room temperature for 10 min to allow the compounds to fully interact with the enzyme. • d) 2 μL of the ATP solution at the corresponding concentration for the enzyme was added to all reaction wells to initiate the kinase reaction. ATP concentrations and reaction times for enzyme screening are shown in Table 26 • e) Five minutes before the end of the kinase reaction, the detection solution was prepared. The detection buffer from the kit was used to prepare detection solutions for Streptavidin-XL665 and TK antibody europium cryptate (1:100) at the appropriate concentrations for the two enzymes. • f) After the kinase reaction was completed, 5 μL of the diluted Streptavidin-XL665 solution was added to all reaction wells. After mixing, the diluted TK antibody europium cryptate detection solution was immediately added. • g) The plate was sealed and mixed, incubated at room temperature for 1 hour, and the fluorescence signal was detected using the ENVISION (PerkinElmer) instrument (excitation at 320 nm, emission at 665 nm and 615 nm). The inhibition rate for each well was calculated based on the full-activity control wells and background signal wells, and the average value of the replicates was taken.
A general note: Time-resolved FRET reads energy transfer from a long-lived donor to a nearby acceptor.

A further assay concerns the target CSF-1R (Homo sapiens, UniProt P07333). The assay can be described thus: CSF-1R in vitro kinase activity assay (HTRF kinEASE TK). The class given is biochemical. Conditions: for inhibition at 0.01 µM: compound 10 nM, read-out: CSF-1R inhibition rate, 10 nM; for inhibition at 0.1 µM: compound 100 nM, read-out: CSF-1R inhibition rate, 100 nM.
Text: as §1, §2, §3, §4, §5, §6, §7

The values that follow come from patent US20260125359A1, “HETEROARYL COMPOUNDS AS MULTI-TARGET PROTEIN KINASE INHIBITORS” (FUJIAN HAIXI PHARMACEUTICALS CO., LTD., priority 2023, published 2026).

Sequence of CSF-1R (P07333 20-972): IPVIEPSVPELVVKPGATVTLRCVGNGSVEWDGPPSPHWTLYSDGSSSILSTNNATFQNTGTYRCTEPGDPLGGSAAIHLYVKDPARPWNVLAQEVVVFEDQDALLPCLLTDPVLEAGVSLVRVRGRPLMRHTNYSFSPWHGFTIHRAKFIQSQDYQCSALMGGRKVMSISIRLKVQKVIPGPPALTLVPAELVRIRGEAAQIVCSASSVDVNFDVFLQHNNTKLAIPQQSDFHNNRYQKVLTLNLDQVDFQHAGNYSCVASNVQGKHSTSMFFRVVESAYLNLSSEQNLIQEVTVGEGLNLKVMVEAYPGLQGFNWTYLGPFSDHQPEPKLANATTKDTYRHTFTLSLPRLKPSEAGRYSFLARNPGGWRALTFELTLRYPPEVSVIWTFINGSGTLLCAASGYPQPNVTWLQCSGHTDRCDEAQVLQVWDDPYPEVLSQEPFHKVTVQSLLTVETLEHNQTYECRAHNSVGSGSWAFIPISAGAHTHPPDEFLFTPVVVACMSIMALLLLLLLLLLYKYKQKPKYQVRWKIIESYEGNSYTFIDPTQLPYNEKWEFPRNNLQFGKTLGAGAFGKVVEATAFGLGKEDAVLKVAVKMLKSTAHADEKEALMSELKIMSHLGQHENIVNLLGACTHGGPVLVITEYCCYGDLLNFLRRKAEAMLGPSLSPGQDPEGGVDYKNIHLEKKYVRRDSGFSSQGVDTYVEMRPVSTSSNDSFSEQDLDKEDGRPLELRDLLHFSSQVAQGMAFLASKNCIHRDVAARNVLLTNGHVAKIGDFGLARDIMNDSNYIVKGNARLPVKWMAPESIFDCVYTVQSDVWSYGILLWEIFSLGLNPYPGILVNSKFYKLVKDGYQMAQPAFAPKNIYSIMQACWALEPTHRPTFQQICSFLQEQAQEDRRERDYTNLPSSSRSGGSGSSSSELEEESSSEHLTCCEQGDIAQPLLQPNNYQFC
Sequence of KIT (P10721 26-976): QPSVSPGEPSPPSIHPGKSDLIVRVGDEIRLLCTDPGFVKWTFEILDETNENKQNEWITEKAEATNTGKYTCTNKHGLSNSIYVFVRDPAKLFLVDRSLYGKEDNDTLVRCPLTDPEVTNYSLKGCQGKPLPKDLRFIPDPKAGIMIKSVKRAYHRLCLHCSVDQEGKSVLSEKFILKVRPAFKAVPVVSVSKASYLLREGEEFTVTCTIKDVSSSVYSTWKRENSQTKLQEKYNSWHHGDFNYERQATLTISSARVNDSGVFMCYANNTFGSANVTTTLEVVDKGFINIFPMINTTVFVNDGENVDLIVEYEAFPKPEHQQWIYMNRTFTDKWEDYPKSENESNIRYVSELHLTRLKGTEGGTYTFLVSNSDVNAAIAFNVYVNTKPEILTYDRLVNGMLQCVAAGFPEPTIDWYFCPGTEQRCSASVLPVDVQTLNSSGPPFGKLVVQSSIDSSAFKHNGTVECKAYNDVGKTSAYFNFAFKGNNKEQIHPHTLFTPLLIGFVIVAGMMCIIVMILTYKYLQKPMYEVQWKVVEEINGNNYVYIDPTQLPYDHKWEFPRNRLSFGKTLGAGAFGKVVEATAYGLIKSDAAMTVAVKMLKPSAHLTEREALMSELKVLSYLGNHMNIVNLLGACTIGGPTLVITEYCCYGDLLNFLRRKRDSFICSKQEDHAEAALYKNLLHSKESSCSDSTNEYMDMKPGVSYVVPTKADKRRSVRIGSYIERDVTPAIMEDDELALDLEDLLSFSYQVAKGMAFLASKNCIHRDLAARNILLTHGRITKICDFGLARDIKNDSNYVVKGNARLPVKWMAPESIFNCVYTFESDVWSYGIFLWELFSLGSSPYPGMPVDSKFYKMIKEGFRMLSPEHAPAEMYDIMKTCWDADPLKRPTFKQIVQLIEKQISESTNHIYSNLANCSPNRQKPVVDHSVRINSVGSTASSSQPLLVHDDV

Take `CN(c1cncc(-c2cnn(C)c2)c1)[C@H]1CCc2c(C(=O)Nc3cccc(C4CC4)c3)cccc21` [Compound 22a, (S)—N-(3-cyclopropylphenyl)-1-(methyl (5-(1-methyl-1H-pyrazol-4-yl)pyridin-3-yl)amino)-2,3-dihydro-1H-indene-4-carboxamide]: the inhibition at 0.01 µM at KIT is 5.8%; on CSF-1R, 34%. In addition, the inhibition at 0.1 µM was 27.2% on KIT and 96.7% at CSF-1R.

As to `CN1CCc2nc(NC(=O)c3cccc4c3CC[C@@H]4Oc3cncc(-c4cnn(C)c4)c3)sc2C1` [Compound 19f], on KIT, the inhibition at 0.01 µM came to 12.1% and the inhibition at 0.1 µM worked out at 53.9%. Further, on CSF-1R, the inhibition at 0.01 µM is 27.5% and the inhibition at 0.1 µM came out at 95.4%.

As to `Cc1cc(NC(=O)c2cccc3c2CC[C@@H]3Oc2cncc(-c3cnn(C)c3)c2)cc(C)n1` [Compound 19k, (S)—N-(2,6-dimethylpyridin-4-yl)-1-((5-(1-methyl-1H-pyrazol-4-yl)pyridin-3-yl)oxy)-2,3-dihydro-1H-indene-4-carboxamide], on KIT, the inhibition at 0.01 µM is 21.8% and the inhibition at 0.1 µM turned out to be 63.7%. Besides, on CSF-1R, the inhibition at 0.01 µM was 57.6% and the inhibition at 0.1 µM came to 97.4%.

`Cn1ncc2ncc(N[C@H]3CCc4c(C(=O)Nc5cccc(C6CC6)c5)cccc43)cc21` [Compound 73, (S)—N-(3-cyclopropylphenyl)-1-((1-methyl-1H-pyrazolo[4,3-b]pyridin-6-yl)amino)-2,3-dihydro-1H-indene-4-carboxamide]: on KIT, the inhibition at 0.01 µM stood at 59.1% and the inhibition at 0.1 µM is 99.7%. In addition, at CSF-1R, the inhibition at 0.01 µM came to 70.2% and the inhibition at 0.1 µM was found to be 101%.

As to `Cn1cc2ncc(O[C@H]3CCc4c(C(=O)Nc5nn(C)c6ccccc56)cccc43)cc2n1` [Compound 76al], on KIT, the inhibition at 0.01 µM worked out at 91.2% and the inhibition at 0.1 µM came out at 95.9%. Besides, on CSF-1R, the inhibition at 0.01 µM is 105% and the inhibition at 0.1 µM stood at 103%.

`Cn1cc(-c2cncc(O[C@H]3CCc4c(C(=O)Nc5cncc(Cl)c5)cccc43)c2)cn1` [Compound 19a, (S)—N-(5-chloropyridin-3-yl)-1-((5-(1-methyl-1H-pyrazol-4-yl)pyridin-3-yl)oxy)-2,3-dihydro-1H-indene-4-carboxamide]: on KIT, the inhibition at 0.01 µM stood at 22.1% and the inhibition at 0.1 µM was 48.6%. On CSF-1R, the inhibition at 0.01 µM amounted to 79.4% and the inhibition at 0.1 µM came out at 100%.

Turning to `CN(c1cnc2cn(C)nc2c1)[C@H]1CCc2c(C(=O)Nc3cncc(Cl)c3)cccc21` [Compound 80k], on KIT, the inhibition at 0.01 µM is 22% and the inhibition at 0.1 µM was found to be 47.8%. In addition, at CSF-1R, the inhibition at 0.01 µM was determined as 73.7% and the inhibition at 0.1 µM amounted to 96.5%.

`Cn1cc(-c2cncc(O[C@H]3CCc4c(C(=O)Nc5cccc(C6CC6)c5)cccc43)c2)cn1` [Compound 19b]: on KIT, the inhibition at 0.01 µM is 11.2% and the inhibition at 0.1 µM is 80.2%. On CSF-1R, the inhibition at 0.01 µM was found to be 71.9% and the inhibition at 0.1 µM is 97.4%.

As for `CN(C)Cc1cncc(NC(=O)c2cccc3c2CC[C@@H]3Oc2cncc(-c3cnn(C)c3)c2)c1` [Compound 19h], on KIT, the inhibition at 0.01 µM is -3.9% and the inhibition at 0.1 µM worked out at 4.9%. Further, at CSF-1R, the inhibition at 0.01 µM turned out to be 72% and the inhibition at 0.1 µM is 96.6%.

`Cn1cc(-c2cncc(N[C@H]3CCc4c(Nc5cc(C(C)(C)C)on5)cccc43)c2)cn1` [Compound 41, (S)—N^4-(5-(tert-butyl)isoxazol-3-yl)-N^1-(5-(1-methyl-1H-pyrazol-4-yl)pyridin-3-yl)-2,3-dihydro-1H-indene-1,4-diamine]: on KIT, the inhibition at 0.01 µM was determined as 7.5% and the inhibition at 0.1 µM was found to be 66.4%. In addition, at CSF-1R, the inhibition at 0.01 µM amounted to 26.9% and the inhibition at 0.1 µM amounted to 100%.

For the compound `CN(c1cnc2cn(C)nc2c1)[C@H]1CCc2c(C(=O)Nc3nn(C)c4ccccc34)cccc21` [Compound 80l], on KIT, the inhibition at 0.01 µM amounted to 69.9% and the inhibition at 0.1 µM was 104%. Also, on CSF-1R, the inhibition at 0.01 µM was 24.3% and the inhibition at 0.1 µM turned out to be 98.4%.

As for `Cn1cc2ncc(O[C@H]3CCc4c(C(=O)Nc5nn(C)c6cccc(F)c56)cccc43)cc2n1` [Compound 76aw], the values for the inhibition at 0.01 µM on KIT and at CSF-1R were 56% and 65.1%, respectively. The inhibition at 0.1 µM on KIT came out at 92.4%; on CSF-1R it was 99.1%.

Turning to `Cc1cncc(NC(=O)c2cccc3c2CC[C@@H]3Nc2cncc(-c3cnn(C)c3)c2)c1` [Compound 14as], on KIT, the inhibition at 0.01 µM was 58.7% and the inhibition at 0.1 µM came out at 94.7%. On CSF-1R, the inhibition at 0.01 µM worked out at 89.7% and the inhibition at 0.1 µM was determined as 97%.

For `Cn1cc(-c2cnc(N)c(O[C@H]3CCc4c(C(=O)Nc5cccc(C6CC6)c5)cccc43)c2)cn1` [Compound 4, (S)-1-((2-amino-5-(1-methyl-1H-pyrazol-4-yl)pyridin-3-yl)oxy)-N-(3-cyclopropylphenyl)-2,3-dihydro-1H-indene-4-carboxamide], the inhibition at 0.01 µM at KIT is 76.8%; on CSF-1R, 80.1%. Also, the values for the inhibition at 0.1 µM at KIT and at CSF-1R were 99.2% and 89.8%, respectively.

In the case of `Cn1ncc2ncc(N[C@H]3CCc4c(Nc5cc(C(C)(C)C)on5)cccc43)nc21` [Compound 86, (S)—N^4-(5-(tert-butyl)isoxazol-3-yl)-N1-(1-methyl-1H-pyrazolo[3,4-b]pyrazin-6-yl)-2,3-dihydro-1H-indene-1,4-diamine], the values for the inhibition at 0.01 µM at KIT and on CSF-1R were 23.4% and 46.6%, respectively. The inhibition at 0.1 µM amounted to 82% on KIT and 95.9% on CSF-1R.

Take `Cn1cc2ncc(O[C@H]3CCc4c(C(=O)Nc5cncc(Cl)c5)cccc43)cc2n1` [Compound 76ai]: the values for the inhibition at 0.01 µM at KIT and on CSF-1R were 39.6% and 78.2%, respectively. Also, the inhibition at 0.1 µM at KIT turned out to be 79.1%; on CSF-1R, 99.1%.

As to `CN(c1cncc(-c2cnn(C)c2)c1)[C@H]1CCc2c(C(=O)Nc3cncc(Cl)c3)cccc21` [Compound 21, (S)—N-(5-chloropyridin-3-yl)-1-(methyl (5-(1-methyl-1H-pyrazol-4-yl)pyridin-3-yl)amino)-2,3-dihydro-1H-indene-4-carboxamide], at KIT, the inhibition at 0.01 µM turned out to be 2.4% and the inhibition at 0.1 µM stood at 15.3%. Further, at CSF-1R, the inhibition at 0.01 µM is 48.6% and the inhibition at 0.1 µM was 100%.

On to `Cc1cncc(NC(=O)c2cccc3c2CC[C@@H]3Oc2cncc(-c3cnn(C)c3)c2)c1` [Compound 19j], for which, on KIT, the inhibition at 0.01 µM was found to be 14.5% and the inhibition at 0.1 µM was determined as 62.8%. Moreover, at CSF-1R, the inhibition at 0.01 µM was determined as 80.1% and the inhibition at 0.1 µM was found to be 101%.

Take `Cn1cc(-c2cncc(N[C@H]3CCc4c(C(=O)Nc5ccc(C(F)(F)F)nc5)cccc43)c2)cn1` [Compound 14ah]: the results for the inhibition at 0.01 µM at KIT and on CSF-1R were 11.3% and 41%, respectively. The values for the inhibition at 0.1 µM at KIT and at CSF-1R were 83.3% and 101%, respectively.

Regarding `Cc1cccc(NC(=O)c2cccc3c2CC[C@@H]3Oc2cnc3cn(C)nc3c2)n1` [Compound 76bd], on KIT, the inhibition at 0.01 µM was 5.6% and the inhibition at 0.1 µM came to 31.4%. At CSF-1R, the inhibition at 0.01 µM came to 15.3% and the inhibition at 0.1 µM is 94.1%.

`Cn1cc2ncc(N[C@H]3CCc4c(C(=O)Nc5nc(C6CC6)cs5)cccc43)cc2n1` [Compound 74h, (S)—N-(4-cyclopropylthiazol-2-yl)-1-((2-methyl-2H-pyrazolo[4,3-b]pyridin-6-yl)amino)-2,3-dihydro-1H-indene-4-carboxamide]: at KIT, the inhibition at 0.01 µM is 35.3% and the inhibition at 0.1 µM worked out at 94.9%. Also, at CSF-1R, the inhibition at 0.01 µM turned out to be 72.6% and the inhibition at 0.1 µM was found to be 96.3%.

In general, inhibition refers to the relative decrease from the control value, in per cent.
